According to ChEMBL document CHEMBL3639060, “Tetrahydropyrido-pyridine and tetrahydropyrido-pyrimidine compounds and use thereof as C5a receptor modulators” (2014):

Biological target: T1, C5a anaphylatoxin chemotactic receptor 1 (Homo sapiens, UniProt P21730)
T1 sequence (P21730 whole entry): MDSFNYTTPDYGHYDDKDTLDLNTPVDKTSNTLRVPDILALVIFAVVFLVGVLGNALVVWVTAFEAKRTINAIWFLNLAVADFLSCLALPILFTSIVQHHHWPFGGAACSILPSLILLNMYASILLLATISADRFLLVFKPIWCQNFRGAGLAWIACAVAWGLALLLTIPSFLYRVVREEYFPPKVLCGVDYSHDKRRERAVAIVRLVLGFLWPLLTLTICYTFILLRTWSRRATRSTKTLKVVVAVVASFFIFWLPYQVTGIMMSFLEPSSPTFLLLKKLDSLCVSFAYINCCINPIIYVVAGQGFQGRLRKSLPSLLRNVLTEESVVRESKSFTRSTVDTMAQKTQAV
Assay: FLIPR Assay: Compounds were tested for their ability to inhibit C5a-mediated calcium mobilization using a stable cell line over expressing the human C5aR & the Galpha 15 protein on the FLIPR (Fluorescent Imaging Plate Reader) Tetra system. Cells were maintained in culture media containing DMEM (Dulbecco's Modified Eagle Medium) with 4.5 g/L glucose, 10% fetal bovine serum, 100 U/mL, 1x non-essential amino acid, and 250 ug/mL G418 (Geneticin). Prior to testing of compounds, cells were plated at 10,000 cells/well in clear bottom 384-well black plate, and incubated overnight at 37C. with 5% CO2. On the day of experiment, culture media was removed, and replaced with assay buffer HBSS (Hanks' Balanced Salt Solution) with 20 mM HEPES (4-(2-hydroxyethyl)-1-piperazineethanesulfonic acid) and 0.1% BSA (bovine serum albumin) BSA containing calcium 5 dye (Molecular Devices) and 2.5 mM probenecid. After 1 hour incubation at 37C., 5% CO2 for 60 min, cells were pre-incubated with compounds for 30 minutes.
Format: functional

Structure (SMILES)	IC50
CO[C@H]1CCN(c2nc(-c3c(Cl)cnc4[nH]ccc34)nc3c2CN(c2cc(C4CC4)ccc2C)CC3)CC1(C)C	0.047 µM
CO[C@@H]1CCN(c2nc(-c3c(C)ccc4[nH]nc(C)c34)nc3c2CN(c2c(Cl)c(C(C)C)nn2C)CC3)[C@H](C)C1	0.002 µM
